Assay results taken from US10898473B2, “Combinations to treat cancer” (EVOL SCIENCE LLC, priority 2016, dated 2021).

Experiments:
[1] = system: BxPC3M1 cells; experiment: Colony formation assay; format: cell-based
Experimental: (§1) For colony formation assays, 400 cells per well were seeded into 24-well plates on day 0. Cells were treated with DMSO or gemcitabine at various doses on day 1 for 24 hours. Gemcitabine was washed out on day 2, vemurafenib, dabrafenib, and methotrexate was added. On day 4, drugs added on day 2 was washed out. Cells were allowed to grow for a subsequent 7 days before being fixed (10% methanol+10% acetic acid) and stained with crystal violet (0.4% in 20% ethanol) for quantitation as previously described (Bhattacharjee et al., 2014).

[2] = system: NCI-H2122 cells; experiment: Colony formation assay; format: cell-based
Experimental: as §1

[3] = system: SK-MEL-28 cells; experiment: Colony formation assay; format: cell-based
Experimental: as §1

[4] = system: SK-MEL-28VR1 cells; experiment: Colony formation assay; format: cell-based
Experimental: as §1

[5] = system: pancreatic cancer patient-derived and ATCC established cell lines; experiment: 3D-spheroidal growth assay (CTG3D cell viability); format: cell-based; conditions: gemcitabine day 2, washed out, B-raf inhibitor day 3, viability day 5; FIG. 15
Experimental: FIG. 15 illustrates gemcitabine sensitized pancreatic cancer patient-derived and ATCC established cell lines to vemurafenib or dabrafenib in 3D-spheroidal growth assays: 20,000 cells plated (Corning 4515 spheroid plates) on day 0, Gemcitabine added on day 2 (all spheroids at least 500 μm in diameter), gemcitabine washed out and B-raf inhibit was added on day 3, CTG3D cell viability assays on day 5 (n=2).
ATCC established cell lines to vemurafenib or dabrafenib in 3D-spheroidal growth assays. 20,000 cells were plated to grow in a 3D-spheroidal growth assays. (Corning 4515 spheroid plates). Two days later when all spheroids were at least 500 μm in diameter, gemcitabine was added 2 days after plating. Gemcitabine was washed out the following day and the B-raf inhibitor was added on day 3 (3 days post-plating). CTG3D cell viability assays were performed 5-days post plating (i.e, on day 5, n=2). […] This was a surprising and unexpected effect that these cells could be killed with this combination.

[6] = system: BxPC3M1, BxPC3, Panc1, and MiaPaca2; experiment: Cell proliferation assay; format: cell-based; conditions: vemurafenib 10 μM; all 4 cell lines (WT BRAF)
Experimental: FIGS. 9A-9H illustrate vemurafenib induced cell proliferation and serine synthesis in pancreatic cancer cell lines. FIG. 9A: Cell proliferation assay of BxPC3 cells treated with vemurafenib (10 μM). 100000 cells plated on day 0. FIG. 9B: Cell proliferation assay of BxPC3M1 cells treated with vemurafenib (10 μM). 100000 cells plated on day 0. FIG. 9C: Cell proliferation assay of Panc1 cells treated with vemurafenib (10 μM). 100000 cells plated on day 0. FIG. 9D: Cell proliferation assay of MiaPaca2 cells treated with vemurafenib (10 μM). 100000 cells plated on day 0. FIG. 9E: Mass spectrometry: PHGDH protein expression in pancreatic cancer cells treated with DMSO or vemurafenib (10 μM) (n=3). FIG. 9F: Mass spectrometry: PSAT1 protein expression in pancreatic cancer cells treated with DMSO or vemurafenib (10 μM) (n=3). FIG. 9G: Mass spectrometry: PSPH protein expression in pancreatic cancer cells treated with DMSO or vemurafenib (10 μM) (n=3). FIG. 9H: Mass spectrometry: SARS protein expression in pancreatic cancer cells treated with DMSO or vemurafenib (10 μM) (n=3).
Next, we tested the effect of vemurafenib treatment on pancreatic cancer cell proliferation. All 4 of the cell lines (BxPC3M1, BxPC3, Panc1, and MiaPaca2) tested express WT BRAF. […] As expected, PHGDH, PSAT1, PSPH, and SARS protein abundance increased in all 4 cell lines tested (FIGS. 9E, 9F, 9G, and 9H). […]

[7] = system: BxPC3M1, BxPC3, Panc1, and MiaPaca2; format: cell-based, Homo sapiens; conditions: vemurafenib 10 μM vs DMSO; all 4 cell lines
[8] = system: PHGDH in SK-MEL-28VR1 cells; experiment: Western blot of PHGDH protein expression; format: cell-based; conditions: following vemurafenib treatment; FIG. 5B
Experimental: Cells were harvested, washed in PBS and lysed in NP40 lysis buffer (1% NP40/PBS/10% glycerol) with protease and phosphatase inhibitors. Protein concentrations were determined with Total-Protein-Assay-kit (ITSI Biosciences; K-0014-20) and then SDS sample buffer was added to the lysates. 50 ug of boiled lysates was separated by SDS-PAGE and then transferred onto Immobilon P membranes (Millipore; IPVH00010).

[9] = system: SK-MEL-28VR1 vs SK-MEL-28 cells; conditions: protein abundance with vemurafenib treatment, SK-MEL-28VR1 compared to parental SK-MEL-28
[10] = system: SK-MEL-28VR1 cells; experiment: Mass spectrometry protein abundance
Experimental: (§2) 5 μL of sample were loaded onto a C18 trap column (PepMap100; 300-μm i.d.×5 mm, 5-μm particle size, 100 Å; Thermo Fisher Scientific) at a flow rate of 10 μL min^−1. […] The runs were analyzed using Progenesis-QI for Proteomics (Nonlinear dynamics). The chromatograms were aligned and the MS/MS data was extracted for peptide identification using Mascot (Matrix Science, London, UK; version 2.5.1). Mascot was set up to search the cRAP database, the custom database including the QMC peptide sequence and SwissProt database (selected for Homo sapiens) assuming the digestion enzyme trypsin. Mascot was searched with a fragment ion mass tolerance of 0.06 Da and a parent ion tolerance of 15 PPM. Deamidated of asparagine and glutamine, oxidation of methionine, acetyl of lysine, propionyl of lysine and carbamidomethylation of cysteine were specified in Mascot as variable modifications. The peptides identified using a FDR<1% were extracted and imported back into Progenesis for assignment of the peaks. Only proteins with at least 2 unique peptides and a Mascot score of 20 were used for further analysis. The peptide and protein quantification used a synthetic control peptide for normalization across the samples.
(§3) All proteomic trend plots were constructed using the Evol Science Software suite (ESSv1.0). […]

[11] = system: SK-MEL-28 cells; experiment: Mass spectrometry protein abundance
Experimental: as §2, §3

`CC(C)(C)c1nc(-c2cccc(NS(=O)(=O)c3c(F)cccc3F)c2F)c(-c2ccnc(N)n2)s1` [dabrafenib, Dabrafenib] was tested, and the sensitization to gemcitabine ([1]; dabrafenib 1 μM + variable doses of gemcitabine, FIG. 11A) was “sensitized” and the sensitization to gemcitabine ([2]; dabrafenib 1 μM + variable doses of gemcitabine, FIG. 11B) was “sensitized”.

`Nc1ccn([C@@H]2O[C@H](CO)[C@@H](O)C2(F)F)c(=O)n1` [gemcitabine] was tested, and the “sensitization over single vemurafenib treatments” value ([3]; gemcitabine 50 nM + variable doses of vemurafenib, FIG. 7A) was “did not sensitize”, the sensitization to vemurafenib ([4]; gemcitabine 50 nM + variable doses of vemurafenib, FIG. 7B) was “significantly sensitized” and the sensitization to dabrafenib ([4]; gemcitabine 50 nm + variable doses of dabrafenib, FIG. 11C) was “sensitized”. For the same compound, the “effect of gemcitabine pre-treatment followed by B-raf inhibitors on the cells” value [5] was “leads to cell death” and the “sensitization to vemurafenib or dabrafenib” value [5] was “sensitized”.

With `CN(Cc1cnc2nc(N)nc(N)c2n1)c1ccc(C(=O)N[C@@H](CCC(=O)O)C(=O)O)cc1` [methotrexate] the “cell death compared to gemcitabine+vemurafenib without methotrexate” value ([1]; methotrexate (75 nM) + gemcitabine + vemurafenib (1 μM), FIG. 10A) was “increased cell death”, the “cell death compared to gemcitabine+vemurafenib without methotrexate” value ([2]; methotrexate (75 nM) + gemcitabine + vemurafenib (1 μM), FIG. 10B) was “increased cell death” and the “killing by methotrexate/vemurafenib treatments” value ([3]; methotrexate 75 nM + differential doses of vemurafenib, FIG. 6C) was “no significant killing”. For the same compound, the “killing of cells following vemurafenib treatment” value ([4]; methotrexate 75 nM + differential doses of vemurafenib, FIG. 6D) was “significantly enhanced” and the “cell death alongside the gemcitabine/vemurafenib combination” value ([4]; methotrexate (75 nM) + gemcitabine (50 nM) + vemurafenib, FIG. 7F) was “significantly enhanced”.

For `CCCS(=O)(=O)Nc1ccc(F)c(C(=O)c2c[nH]c3ncc(-c4ccc(Cl)cc4)cc23)c1F` [vemurafenib, Vemurafenib], the sensitization to gemcitabine ([1]; variable gemcitabine doses + vemurafenib 1 μM, FIG. 8A) was “significantly sensitized”, the cell death ([1]; vemurafenib 5 μM, serine depleted media (not with complete media), FIG. 10C) was greater than 50% and the sensitization to gemcitabine ([2]; vemurafenib 1 μM, FIG. 8C) was “sensitized”. For the same compound, the cell death ([4]; vemurafenib 2.5 μM and 5 μM, serine depletion (not with complete media), FIG. 6E) was greater than 50%, the cell proliferation [6] was “increased proliferation” and the “PHGDH, PSAT1, PSPH, and SARS protein abundance” value [7] was “increased”. The PHGDH levels [8] was “increased”, the “Fold differential, ASNS” value [9] was 8 fold and the “Fold differential, CYP51A1” value [9] was 8 fold. The “Fold differential, DUS2” value [9] was 7 fold, the “Fold differential, FAM129B” value [9] was 9 fold and the “Fold differential, KRT19” value [9] was 5 fold. The “Fold differential, LARS2” value [9] was 6 fold, the “Fold differential, MPHOSPH6” value [9] was 9 fold and the “Fold differential, MRPL13” value [9] was 2 fold. For the same compound, the “Fold differential, PDLIM7” value [9] was 9 fold, the “Fold differential, PHGDH” value [9] was 2 fold and the “Fold differential, PPP1R7” value [9] was 8 fold. For the same compound, the “Fold differential, PSAT1” value [9] was 8 fold, the “Fold differential, PSPH” value [9] was 5 fold and the “Fold differential, RUVBL1” value [9] was 3 fold. For the same compound, the “Fold differential, S100A11” value [9] was 8 fold, the “Fold differential, SARS” value [9] was 6 fold and the “Fold differential, SARS2” value [9] was 4 fold. For the same compound, the “Fold differential, SBDS” value [9] was 10 fold, the “Fold differential, SPATA20” value [9] was 12 fold and the “Fold differential, TXNDC17” value [9] was 2 fold. For the same compound, the “PHGDH, PSAT1, PSPH, SARS and SARS2 abundance” value ([10]; cells exposed to vemurafenib vs vehicle, data not shown) was “equal or higher abundances”, the “Cytoplasmic FAM129B abundance increase” value ([10]; vemurafenib treatment compared to vehicle treatment, FIG. 5A) was roughly 6 fold and the FAM129B abundance ([11]; in response to vemurafenib treatments, parental cells) was “decreased”. For the same compound, the “PHGDH, PSAT1, PSPH, SARS and SARS2 abundance” value ([11]; parental cells exposed to vemurafenib vs vehicle, data not shown) was “opposite trend”.
